In publication PMC10726441, “Discovery of Tumor-Targeted 6-Methyl Substituted Pemetrexed and Related Antifolates with Selective Loss of RFC Transport” (ACS Medicinal Chemistry Letters, 2023):

Legend:
Type in all cases: cell-based, human
[1] = test system: IOSE 7576 normal ovary cells; assay: Cell proliferation assay, IOSE 7576 normal ovary cells; conditions: for IC50: Homo sapiens, 96 h, 0-1000 nM, mean (standard error), 3-5 experiments
Text: (§1) For the tumor cells, except the des-methyl compound 4 with IGROV1 cells, all compounds were inhibitory. […]
(§2) Reagents for biological studies. Leucovorin [(6R,S) 5-formyl tetrahydrofolate] and methotrexate (MTX) was provided by the Drug Development Branch, National Cancer Institute, Bethesda, MD. Other chemicals were obtained from commercial sources in the highest available purities. Pemetrexed (PMX; 1) [N-{4-[2- (2-amino-3,4-dihydro-4-oxo-7H-pyrrolo[2,3-d]pyrimidin-5-yl)ethyl]benzoyl-L-glutamic acid] (Alimta) was purchased from LC Laboratories (Woburn, MA). The syntheses of compounds 2 and 3 were previously described.7, 8 Additional chemicals were purchased from commercial sources in the highest available purities. […]
(§3) KB nasopharyngeal carcinoma cells were obtained from the American Type Culture Collection (Manassas, VA) and IGROV1 (NCI-IGROV1) (passage 5) ovarian adenocarcinoma cells13 were obtained from the Division of Cancer Treatment and Diagnosis, National Cancer Institute (Frederick, MD). Normal ovary cells immortalized with SV40 (IOSE 7576)14 were obtained from the Canadian OvCaRe Cell Bank […]
(§4) (Vancouver, B.C). IGROV1, KB and IOSE 7576 cells were cultured in complete FF-RPMI with 10% fetal bovine serum and 100 units/mL penicillin/100 μg/mL streptomycin, and 2 mM L-glutamine. Cell lines were tested for Mycoplasma by PCR using a Mycloplasma testing kit (Venor™ GeM Mycoplasma Detection Kit, Sigma). Frozen stocks were generated from authenticated Mycoplasma-free cultures.
(§5) For cell proliferation assays, CHO, KB, NCI-IGROV1 and IOSE 7576 cells were plated in 96-well dishes at densities ranging from 2500-5000 cells/well in 200 μL media and treated with a range of inhibitors spanning 0-1000 nM. Experiments with RT16, D4, IGROV1, IOSE 7576 and KB cells used folate-free RPMI 1640 (FF RPMI) media with 10% dialyzed fetal bovine serum and 100 units/mL penicillin/100 μg/mL streptomycin, supplemented with 2 nM leucovorin and 2 mM L-glutamine. FR-mediated drug uptake was assessed in parallel incubations including 200 nM folic acid. For R2/PCFT4, PC43-10 and R2 CHO cells, the medium was FF-RPMI supplemented with 10% dialyzed fetal bovine serum, 100 units/mL penicillin/100 μg/mL streptomycin, 25 nM leucovorin and 2 mM L-glutamine.
(§6) Cells were treated over a 96 h period at 37° C with 5% CO2 and relative cell numbers quantified using the CellTiter-blue cell viability assay (Promega, Madison, WI) and a fluorescence plate reader. Raw data were exported to Excel for analysis and the results were plotted using Graphpad Prism 6.0. Determinations of IC50s were made […]
assays have been previously described.7, 8, 11, 12, 15-20
(§7) Using KB cells, additional proliferation assays were performed with metabolite protection in folate- and glycine-free RPMI1640 with 10% dialyzed fetal bovine serum, 2 mM L-glutamine and antibiotics with 2 nM leucovorin to identify the targeted pathway and enzyme(s). 7, 8, 11, 12, 15-20 Inhibitory effects of the novel analogs on de novo thymidylate biosynthesis and de novo purine nucleotide biosynthesis were tested by incubating drugs with thymidine (10 μM) and adenosine (60 μM), respectively. Incubation with glycine (130 µM) was used to assess the potential involvement of mitochondrial C1 targeted agents.15 To identify multiple metabolic targets, metabolite additions were added in combination.7, 8, 11, 12, 15-19 Finally, to distinguish targeting between the folate-dependent purine biosynthetic enzymes glycinamide ribonucleotide formyltransferase (GARFTase) and 5-aminoimidazole-4-carboxamide (AICA) ribonucleotide formyltransferase (AICARFTase), co-incubation experiments were performed using AICA hydrochloride (320 μM). 7, 8, 11, 12, […]
(§8) Statistics. The biological data reflect at least three experimental replicates. All statistical comparisons were performed using unpaired t-tests. Biological data are presented as mean values +/- standard errors using data without transformation.

[2] = test system: KB nasopharyngeal carcinoma cells; assay: Cell proliferation assay, KB tumor cells; conditions: for IC50: Homo sapiens, 96 h, 0-1000 nM, mean (standard error), 3-5 experiments
Text: as §1, §2, §3, §4, §5, §6
(§9) assays have been previously described.7, 8, 11, 12, 15-20 […]
as §7, with “7,” for “Using KB cells, additional proliferation assays were performed with metabolite protection in folate- and glycine-free RPMI1640 with 10% dialyzed fetal bovine serum, 2 mM L-glutamine and antibiotics with 2 nM leucovorin to identify the targeted pathway and enzyme(s). 7,”
as §8

[3] = test system: IGROV1 epithelial ovarian cancer cells; assay: Cell proliferation assay, IGROV1 tumor cells; conditions: for IC50: Homo sapiens, IGROV-1, 96 h, 0-1000 nM, mean (standard error), 3-5 experiments; for potency toward IGROV1 cells compared with IOSE 7576 cells (in words): IGROV1 vs IOSE 7576
Text: as §1, §2, §3, §4, §5, §6, §9
as §7, with “7,” for “Using KB cells, additional proliferation assays were performed with metabolite protection in folate- and glycine-free RPMI1640 with 10% dialyzed fetal bovine serum, 2 mM L-glutamine and antibiotics with 2 nM leucovorin to identify the targeted pathway and enzyme(s). 7,”
as §8

SMILES | IC50 [2] | IC50 [3] | IC50 [1] | potency toward IGROV1 cells compared with IOSE 7576 cells (in words) [3] | greater potency than the corresponding 6-desmethyl analogue 3, KB cells ([2]; KB cells, relative to compound 3) | greater potency than the corresponding 6-desmethyl analogue 3, IGROV1 cells ([3]; IGROV1 cells, relative to compound 3) | inhibition of IOSE 7576 cells (in words) [1] | inhibition of IGROV1 cells (in words) [3]
Cc1[nH]c2nc(N)[nH]c(=O)c2c1CCc1ccc(C(=O)N[C@@H](CCC(=O)O)C(=O)O)c(F)c1 [Compound 8] | 347 nM | 134 nM | > 1000 nM | – | – | – | – | –
Nc1nc2[nH]cc(CCc3ccc(C(=O)N[C@@H](CCC(=O)O)C(=O)O)s3)c2c(=O)[nH]1 [Compound 3] | 833 nM | 320 nM | 39.3 nM | more potent toward IOSE 7576 cells than IGROV1 cells | – | – | – | –
Cc1[nH]c2nc(N)[nH]c(=O)c2c1CCc1ccc(C(=O)N[C@@H](CCC(=O)O)C(=O)O)s1 [Compound 7] | 3.43 nM | 2.52 nM | > 1000 nM | – | 242 fold | 127 fold | – | –
Nc1nc2[nH]cc(CCc3ccc(C(=O)N[C@@H](CCC(=O)O)C(=O)O)c(F)c3)c2c(=O)[nH]1 [Compound 4] | 77.3 nM | > 1000 nM | > 1000 nM | – | – | – | inactive | inactive

The next lines start with results.

IC50 [2] | IC50 [3] | SMILES | IC50 [1] | potency toward IGROV1 cells compared with IOSE 7576 cells (in words) [3] | greater potency than the corresponding 6-desmethyl analogue 3, KB cells ([2]; KB cells, relative to compound 3) | greater potency than the corresponding 6-desmethyl analogue 3, IGROV1 cells ([3]; IGROV1 cells, relative to compound 3) | inhibition of IOSE 7576 cells (in words) [1] | inhibition of IGROV1 cells (in words) [3]
28.5 nM | 9.31 nM | Cc1[nH]c2nc(N)[nH]c(=O)c2c1CCc1ccc(C(=O)N[C@@H](CCC(=O)O)C(=O)O)cc1 [Compound 5] | > 1000 nM | – | – | – | – | –
– | 52.7 nM | Nc1nc2[nH]cc(CCCc3ccc(C(=O)N[C@@H](CCC(=O)O)C(=O)O)cc3)c2c(=O)[nH]1 [Compound 2] | 13.2 nM | more potent toward IOSE 7576 cells than IGROV1 cells | – | – | – | –
9.95 nM | 71 nM | Nc1nc2[nH]cc(CCc3ccc(C(=O)N[C@@H](CCC(=O)O)C(=O)O)cc3)c2c(=O)[nH]1 [Compound 1, reference compound] | 627 nM | more active toward IGROV1 cells | – | – | – | –
49.9 nM | 750 nM | Cc1[nH]c2nc(N)[nH]c(=O)c2c1CCCc1ccc(C(=O)N[C@@H](CCC(=O)O)C(=O)O)cc1 [Compound 6] | 824 nM | – | – | – | modestly inhibitory | modestly inhibitory
